In patent US20250049929A1, “NOVEL TETRAHYDROQUINOLINES AND PROTEOLYSIS TARGETING CHIMERA (PROTACS) COMPRISING THEM AS DEGRADERS OF SMARCA” (Boehringer Ingelheim International GmbH, priority 2021, published 2025):

Columns and labels:
SMARCA2 = target: T1, SMARCA2 (Homo sapiens, UniProt P51531); test: SMARCA2 degradation analysis by imaging in RKO cells (DC50 A2); type: cell-based; conditions: tables 69, 70, 73, 76-78
T1 construct: endogenous in cells; host or cells: RKO cells (CRL-2577, ATCC)
Description: (§1) Determination of SMARCA2 and SMARCA4 Degradation (DC50 A2 and A4 [nM])
(§2) Protein Degradation Assays for SMARCA2 and SMARCA4
(§3) For degradation analysis by imaging, 1250 RKO cells (CRL-2577, ATCC) per well were seeded into 60 μL DMEM (Sigma Aldrich) supplemented with 10% FBS (Hyclone) in 384-well flat bottom plates (CellCarrier Ultra, Perkin Elmer) and incubated at 37° C. and 5% CO2 in a humidified atmosphere overnight. Compounds were added the next day using an Access Labcyte Workstation with a Labcyte Echo 550 or 555 acoustic dispenser and incubated with the cells for 4 or 24 h. Cells were fixed by adding 25 μL fixation buffer (7.4% formaldehyde (Sigma Aldrich F8775), 0.2% Triton TX100 (Sigma Aldrich F93443) in PBS) for 15 minutes at room temperature. After aspirating the fixing solution, the cells were washed once with 25 μL PBS and 25 μL of Blocking Buffer (10% Goat Serum in PBS) were added to each well and incubated for 30 minutes. Cells were washed with PBS and incubated with 20 μL mouse anti-Smarca4 (BRG1) antibody (Cell Signaling #52251) or rabbit anti-Smarca2 (BRM) antibody (Sigma Aldrich HPA029981) in blocking solution (PBS with 10% FCS) for ca. 2-4 h at RT. For detection of the nuclei, 25 μL of 5 μg/mL Hoechst 33342 (stock 10 mg/mL in H2O; Invitrogen H1399) were added together with Alexa Fluor 647 goat anti-mouse IgG (Invitrogen A-21235) or Alexa Fluor 488 goat anti-rabbit IgG (Invitrogen A-11034) in blocking solution and incubated for 60 min at RT. The cell layer was washed with 25 μL PBS, the wells were filled with 25 μL PBS and the plates sealed with an adhesive sheet. The mean intensity at 488 or 647 nm in the nucleus was measured using an Opera Phenix Plus High-Content Screening System (Perkin Elmer), values were normalized to the background and DMSO control and DC50 values were calculated and analyzed using a four-parametric logistic model.

SMARCA4 = target: T2, SMARCA4 (Homo sapiens, UniProt P51532); test: SMARCA4 degradation analysis by imaging in RKO cells (DC50 A4); type: cell-based; conditions: tables 69, 70, 73, 76-78
T2 construct: endogenous in cells; host or cells: RKO cells (CRL-2577, ATCC)
Description: as §1, §2, §3

T1 sequence (P51531 whole entry): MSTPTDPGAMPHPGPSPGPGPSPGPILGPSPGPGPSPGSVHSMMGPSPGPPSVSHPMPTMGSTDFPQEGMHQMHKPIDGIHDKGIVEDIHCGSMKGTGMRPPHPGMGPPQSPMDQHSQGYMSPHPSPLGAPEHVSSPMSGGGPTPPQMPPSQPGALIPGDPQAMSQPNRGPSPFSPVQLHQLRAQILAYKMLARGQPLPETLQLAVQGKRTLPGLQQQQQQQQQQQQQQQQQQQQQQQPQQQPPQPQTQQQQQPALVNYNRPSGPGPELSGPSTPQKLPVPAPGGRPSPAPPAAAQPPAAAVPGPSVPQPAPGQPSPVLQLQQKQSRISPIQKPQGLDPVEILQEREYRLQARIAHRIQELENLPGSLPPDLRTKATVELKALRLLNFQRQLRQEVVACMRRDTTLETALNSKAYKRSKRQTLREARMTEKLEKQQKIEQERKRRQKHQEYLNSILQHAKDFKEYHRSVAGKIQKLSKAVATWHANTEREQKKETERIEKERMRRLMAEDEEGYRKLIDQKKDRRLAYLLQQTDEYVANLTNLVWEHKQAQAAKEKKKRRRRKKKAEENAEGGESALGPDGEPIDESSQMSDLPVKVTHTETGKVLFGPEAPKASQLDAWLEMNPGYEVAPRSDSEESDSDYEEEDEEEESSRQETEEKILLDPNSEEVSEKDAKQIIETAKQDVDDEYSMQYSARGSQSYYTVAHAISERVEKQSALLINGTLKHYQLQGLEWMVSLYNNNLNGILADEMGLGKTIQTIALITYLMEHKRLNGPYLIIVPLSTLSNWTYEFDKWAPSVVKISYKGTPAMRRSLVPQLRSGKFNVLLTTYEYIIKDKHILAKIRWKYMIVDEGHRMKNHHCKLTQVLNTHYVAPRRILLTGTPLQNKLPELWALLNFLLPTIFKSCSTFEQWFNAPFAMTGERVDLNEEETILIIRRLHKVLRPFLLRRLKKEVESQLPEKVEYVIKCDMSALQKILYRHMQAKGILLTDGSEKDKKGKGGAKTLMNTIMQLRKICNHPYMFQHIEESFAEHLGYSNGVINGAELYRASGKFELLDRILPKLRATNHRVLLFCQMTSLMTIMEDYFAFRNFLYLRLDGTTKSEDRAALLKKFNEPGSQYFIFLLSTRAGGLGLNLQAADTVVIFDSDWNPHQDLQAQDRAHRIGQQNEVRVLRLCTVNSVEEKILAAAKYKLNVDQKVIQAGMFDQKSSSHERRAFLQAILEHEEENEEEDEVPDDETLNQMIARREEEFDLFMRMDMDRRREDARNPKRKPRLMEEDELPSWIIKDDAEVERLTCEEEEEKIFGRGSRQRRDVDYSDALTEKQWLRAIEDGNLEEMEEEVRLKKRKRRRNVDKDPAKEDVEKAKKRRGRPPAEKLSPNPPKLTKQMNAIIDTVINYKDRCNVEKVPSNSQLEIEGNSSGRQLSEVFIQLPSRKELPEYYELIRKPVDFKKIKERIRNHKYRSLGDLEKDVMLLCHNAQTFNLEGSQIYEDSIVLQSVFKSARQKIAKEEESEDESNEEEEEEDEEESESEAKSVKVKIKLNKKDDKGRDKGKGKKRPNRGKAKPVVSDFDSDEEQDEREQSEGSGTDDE
T2 sequence (P51532 whole entry): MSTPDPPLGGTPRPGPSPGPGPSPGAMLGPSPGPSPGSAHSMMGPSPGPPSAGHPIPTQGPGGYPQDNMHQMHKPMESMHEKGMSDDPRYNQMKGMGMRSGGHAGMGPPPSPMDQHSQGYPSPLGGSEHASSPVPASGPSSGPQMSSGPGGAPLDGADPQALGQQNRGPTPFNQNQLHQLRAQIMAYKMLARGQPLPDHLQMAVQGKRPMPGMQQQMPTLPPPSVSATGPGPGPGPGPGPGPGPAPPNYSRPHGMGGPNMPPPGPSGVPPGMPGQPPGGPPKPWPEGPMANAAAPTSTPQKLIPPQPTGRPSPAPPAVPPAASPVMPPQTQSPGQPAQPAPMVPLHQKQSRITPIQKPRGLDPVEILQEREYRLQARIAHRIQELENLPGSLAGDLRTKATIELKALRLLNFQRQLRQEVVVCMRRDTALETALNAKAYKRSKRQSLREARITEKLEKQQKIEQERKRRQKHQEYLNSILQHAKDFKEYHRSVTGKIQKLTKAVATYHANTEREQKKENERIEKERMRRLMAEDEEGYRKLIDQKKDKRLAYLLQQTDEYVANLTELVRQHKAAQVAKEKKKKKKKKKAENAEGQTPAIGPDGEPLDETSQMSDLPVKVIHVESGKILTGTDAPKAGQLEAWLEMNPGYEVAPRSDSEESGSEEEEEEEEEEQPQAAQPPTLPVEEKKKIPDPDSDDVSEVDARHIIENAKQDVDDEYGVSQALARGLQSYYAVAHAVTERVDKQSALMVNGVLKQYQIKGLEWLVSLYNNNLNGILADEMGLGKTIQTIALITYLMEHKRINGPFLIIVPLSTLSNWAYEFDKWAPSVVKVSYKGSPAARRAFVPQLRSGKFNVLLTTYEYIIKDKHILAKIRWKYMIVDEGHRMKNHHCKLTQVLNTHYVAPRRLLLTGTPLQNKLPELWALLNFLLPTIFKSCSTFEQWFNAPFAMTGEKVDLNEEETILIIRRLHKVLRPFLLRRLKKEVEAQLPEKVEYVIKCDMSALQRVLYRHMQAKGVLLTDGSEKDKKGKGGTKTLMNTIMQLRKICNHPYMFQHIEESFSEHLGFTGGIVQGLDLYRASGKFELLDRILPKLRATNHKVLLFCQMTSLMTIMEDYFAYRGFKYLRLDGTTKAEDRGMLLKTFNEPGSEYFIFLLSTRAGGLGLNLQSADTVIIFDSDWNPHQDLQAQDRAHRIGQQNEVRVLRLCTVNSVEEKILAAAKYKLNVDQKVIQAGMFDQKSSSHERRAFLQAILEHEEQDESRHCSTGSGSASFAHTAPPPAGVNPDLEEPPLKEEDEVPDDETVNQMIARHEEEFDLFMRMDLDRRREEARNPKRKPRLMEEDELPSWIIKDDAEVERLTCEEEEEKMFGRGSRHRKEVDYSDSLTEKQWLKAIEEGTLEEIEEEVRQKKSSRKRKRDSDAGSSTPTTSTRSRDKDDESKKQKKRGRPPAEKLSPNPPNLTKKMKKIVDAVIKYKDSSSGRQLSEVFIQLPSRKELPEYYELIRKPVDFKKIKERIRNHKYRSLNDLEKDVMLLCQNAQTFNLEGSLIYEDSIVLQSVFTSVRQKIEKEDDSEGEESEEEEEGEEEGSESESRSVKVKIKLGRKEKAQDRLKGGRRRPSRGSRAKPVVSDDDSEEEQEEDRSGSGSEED

DC50 (SMARCA2) [nM]	DC50 (SMARCA4) [nM]	Compound
11	64	Cc1ncsc1-c1ccc([C@H](COCCN2CCC(c3ccc4c(c3)n(C3CCCC3)c3nc(=O)c5c(Br)cccc5n43)CC2)NC(=O)[C@@H]2C[C@@H](O)CN2C(=O)[C@@H](NC(=O)C2(C3CC3)CC2)C(C)(C)C)cc1 [Compound 42bd]
12	67	Cc1ncsc1-c1ccc([C@H](COCCN2CCC(c3ccc4c(c3)n(C3CCCC3)c3nc(=O)c5c(Br)cccc5n43)CC2)NC(=O)[C@@H]2C[C@@H](O)CN2C(=O)[C@@H](NC(=O)C2(C#N)CC2)C(C)(C)C)cc1 [Compound 42be]
8	87	COC(=O)C1(C(=O)N[C@H](C(=O)N2C[C@H](O)C[C@H]2C(=O)N[C@@H](COCCN2CCC(c3ccc4c(c3)n(C3CCCC3)c3nc(=O)c5c(Br)cccc5n43)CC2)c2ccc(-c3scnc3C)cc2)C(C)(C)C)CC1 [Compound 42bf]
6	153	Cc1ncsc1-c1ccc([C@H](COCCN2CCC(c3ccc4c(c3)n(C3CCCC3)c3nc(=O)c5c(Br)cccc5n43)CC2)NC(=O)[C@@H]2C[C@@H](O)CN2C(=O)[C@@H](NC(=O)C23CCCCC2C3)C(C)(C)C)cc1 (stereo partly shown) [Compound 42bh]
3	6	Cc1ncsc1-c1ccc([C@H](CCCN2CCC(c3ccc4c(c3)n(C3CCCC3)c3nc(=O)c5c(N)cccc5n43)CC2)NC(=O)[C@@H]2C[C@@H](O)CN2C(=O)[C@@H](NC(=O)C2(N3CCCC3)CC2)C(C)(C)C)cc1 [Compound 42bi]
8	83	CC(=O)O[C@@H]1C[C@@H](C(=O)N[C@@H](CCCCCN2CCC(c3ccc4c(c3)n(C3CCCC3)c3nc(=O)c5c(Br)cccc5n43)CC2)c2ccc(-c3scnc3C)cc2)N(C(=O)[C@@H](NC(=O)C2(F)CC2)C(C)(C)C)C1 [Compound 42bj]
3	60	CCCCC(=O)O[C@@H]1C[C@@H](C(=O)N[C@@H](CC[C@H](C)CCN2CCC(c3ccc4c(c3)n(C3CCCC3)c3nc(=O)c5c(Br)cccc5n43)CC2)c2ccc(-c3scnc3C)cc2)N(C(=O)[C@@H](NC(=O)C2(F)CC2)C(C)(C)C)C1 [Compound 42bk]
0.7	11	Cc1ncsc1-c1ccc([C@H](CCCCCN2CCC(c3ccc4c(c3)n(C3CCCC3)c3nc(=O)c5c(Br)cccc5n43)CC2)NC(=O)[C@@H]2C[C@@H](O)CN2C(=O)[C@@H](NC(=O)C2(F)CC2)C(C)(C)C2CC2)cc1 [Compound 42c]
0.7	7	Cc1ncsc1-c1ccc([C@H](CC[C@@H](C)CCN2CCC(c3ccc4c(c3)n(C3CCCC3)c3nc(=O)c5c(Br)cccc5n43)CC2)NC(=O)[C@@H]2C[C@@H](O)CN2C(=O)[C@@H](NC(=O)C2(F)CC2)C(C)(C)C)cc1 [Compound 42d]
4.1	80	Cc1ncsc1-c1ccc([C@H](CCC(O)CCN2CCC(c3ccc4c(c3)n(C3CCCC3)c3nc(=O)c5c(Br)cccc5n43)CC2)NC(=O)[C@@H]2C[C@@H](O)CN2C(=O)[C@@H](NC(=O)C2(F)CC2)C(C)(C)C)cc1 (stereo partly shown) [Compound 42e]
2	46	Cc1ncsc1-c1ccc([C@H](CCCCCN2CCC(c3ccc4c(c3)n([C@H]3CC[C@@H](O)C3)c3nc(=O)c5c(Br)cccc5n43)CC2)NC(=O)[C@@H]2C[C@@H](O)CN2C(=O)[C@@H](NC(=O)C2(F)CC2)C(C)(C)C)cc1 [Compound 42f]
3	40	Cc1ncsc1-c1ccc([C@H](CCC(C)(C)CCN2CCC(c3ccc4c(c3)n(C3CCCC3)c3nc(=O)c5c(Br)cccc5n43)CC2)NC(=O)[C@@H]2C[C@@H](O)CN2C(=O)[C@@H](NC(=O)C2(F)CC2)C(C)(C)C)cc1 [Compound 42g]
0.3	4	Cc1ncsc1-c1ccc([C@H](CCCCCN2CCC(c3ccc4c(c3)n(C3CCCC3)c3nc(=O)c5c(Br)cccc5n43)CC2)NC(=O)[C@@H]2C[C@@H](O)CN2C(=O)[C@@H](NC(=O)C2(F)CC2)C(C)(C)C)cc1 [Compound 42h]
9	24	Cc1ncsc1-c1ccc([C@H](COC(C)(C)CN2CCCN(c3ccc4c(c3)n(C3CCCC3)c3nc(=O)c5c(Br)cccc5n43)CC2)NC(=O)[C@@H]2C[C@@H](O)CN2C(=O)[C@@H](NC(=O)C2(F)CC2)C(C)(C)C)cc1 [Compound 42i]
4	> 833	CCC(C)(C)[C@H](NC(=O)C1(F)CC1)C(=O)N1C[C@H](O)C[C@H]1C(=O)N[C@@H](COC(C)(C)CN1CCN(c2ccc3c(c2)n(C2CCCC2)c2nc(=O)c4c(Br)cccc4n32)CC1)c1ccc(-c2scnc2C)cc1 [Compound 42j]
3	> 833	Cc1ncsc1-c1ccc([C@H](COC(C)(C)CN2CCC(c3ccc4c(c3)n(C3CCCC3)c3nc(=O)c5c(Br)cccc5n43)CC2)NC(=O)[C@@H]2C[C@@H](O)CN2C(=O)[C@@H](NC(=O)C2(F)CC2)C(C)(C)C)cc1 [Compound 42l]
4	> 833	Cc1ncsc1-c1ccc([C@H](CO[C@H](C)CN2CCC(c3ccc4c(c3)n(C3CCCC3)c3nc(=O)c5c(Br)cccc5n43)CC2)NC(=O)[C@@H]2C[C@@H](O)CN2C(=O)[C@@H](NC(=O)C2(F)CC2)C(C)(C)C)cc1 [Compound 42m]
3	800	Cc1ncsc1-c1ccc([C@H](COC(C)(C)CN2CCC(c3ccc4c(c3)n(C3CCCC3)c3nc(=O)c5c(Br)cccc5n43)CC2)NC(=O)[C@@H]2C[C@@H](O)CN2C(=O)[C@@H](NC(=O)C2(F)CC2)C2(C)CCCC2)cc1 [Compound 42n]
5	90	Cc1ncsc1-c1ccc([C@H](COCCN2CCC(c3ccc4c(c3)n(C3CCCC3)c3nc(=O)c5c(Br)cccc5n43)CC2)NC(=O)[C@@H]2C[C@@H](O)CN2C(=O)[C@@H](NC(=O)C2(F)CC2)C(C)(C)C)cc1 [Compound 42o]
13	> 833	Cc1ncsc1-c1ccc([C@H](CO[C@H](C)CN2CCC(c3ccc4c(c3)n(C3C[C@H](C)[C@@H](C)C3)c3nc(=O)c5c(Br)cccc5n43)CC2)NC(=O)[C@@H]2C[C@@H](O)CN2C(=O)[C@@H](NC(=O)C2(F)CC2)C(C)(C)C)cc1 [Compound 42p]
0.4	1	Cc1ncsc1-c1ccc([C@H](CCCN2CCC(c3ccc4c(c3)n(C3CCCC3)c3nc(=O)c5c(Br)cccc5n43)CC2)NC(=O)[C@@H]2C[C@@H](O)CN2C(=O)[C@@H](NC(=O)C2(F)CC2)C(C)(C)C)cc1 [Compound 42q]
2	27	Cc1ncsc1-c1ccc([C@H](CO[C@H](C)CN2CCC(c3ccc4c(c3)n(C3CCCC3)c3nc(=O)c5c(Cl)cccc5n43)CC2)NC(=O)[C@@H]2C[C@@H](O)CN2C(=O)[C@@H](NC(=O)C2(F)CC2)C23CC4CC(CC(C4)C2)C3)cc1 [Compound 42r]
0.7	8	Cc1ncsc1-c1ccc([C@H](COCCCCCN2CCC(c3ccc4c(c3)n(C3CCCC3)c3nc(=O)c5c(Br)cccc5n43)CC2)NC(=O)[C@@H]2C[C@@H](O)CN2C(=O)[C@@H](NC(=O)C2(F)CC2)C(C)(C)C)cc1 [Compound 42s]
3	67	Cc1ncsc1-c1ccc([C@H](COCCN2CCC(c3cc4c(cc3OC[C@@H]3CCCO3)n3c5cccc(Br)c5c(=O)nc3n4C3CCCC3)CC2)NC(=O)[C@@H]2C[C@@H](O)CN2C(=O)[C@@H](NC(=O)C2(F)CC2)C(C)(C)C)cc1 [Compound 42t]
0.3	0.7	Cc1ncsc1-c1ccc([C@H](C[C@@H](C)CN2CCC(c3ccc4c(c3)n(C3CCCC3)c3nc(=O)c5c(Br)cccc5n43)CC2)NC(=O)[C@@H]2C[C@@H](O)CN2C(=O)[C@@H](NC(=O)C2(F)CC2)C(C)(C)C)cc1 [Compound 42u]
11	> 833	Cc1ncsc1-c1ccc([C@H](CO[C@@H](CN2CCC(c3ccc4c(c3)n(C3CCCC3)c3nc(=O)c5c(Br)cccc5n43)CC2)C2CC2)NC(=O)[C@@H]2C[C@@H](O)CN2C(=O)[C@@H](NC(=O)C2(F)CC2)C(C)(C)C)cc1 [Compound 42v]
11	36	CCOC(=O)c1ncsc1-c1ccc([C@H](CCCN2CCC(c3ccc4c(c3)n(C3CCCC3)c3nc(=O)c5c(Br)cccc5n43)CC2)NC(=O)[C@@H]2C[C@@H](O)CN2C(=O)[C@@H](NC(=O)C2(F)CC2)C(C)(C)C)cc1 [Compound 42w]
0.3	2	Cc1ncsc1-c1ccc([C@H](CCCN2CCC(c3ccc4c(c3)n(C3CCCC3)c3nc(=O)c5c(N)cccc5n43)CC2)NC(=O)[C@@H]2C[C@@H](O)CN2C(=O)[C@@H](NC(=O)C2(F)CC2)C(C)(C)C)cc1 [Compound 42x]
6	101	Cc1ncsc1-c1ccc([C@H](CO[C@H](C)CN2CCC(c3ccc4c(c3)n(C3CCCC3)c3nc(=O)c5c(Br)cccc5n43)CC2)NC(=O)[C@@H]2C[C@@H](O)CN2C(=O)[C@@H](NC(=O)C2(N(C)C)CC2)C(C)(C)C)cc1 [Compound 42y]
